Where two headings read alike, the source gives them in different places.
Columns and labels:
[1] = Thermal stability of K2FeO4, cycling temperature profile (AR 70-38); assay type: physicochemical; details: cycling daily from 23° C. to 71° C. and back again
Method: The cycling temperature profile specified in AR 70-38 also was studied. An oven (Fisher Scientific model No. 48) was outfitted with a programmable temperature controller (Omega Engineering model CN3251) and a small fan in order to provide air circulation. Temperature data acquisition was performed using a HOBO data logger (Onset Computer Corp., model HTEA −39+123° C.). The temperature controller was programmed to meet the specifications of AR 70-38 Sec. II, Table 2-2 (Storage and Transit Conditions). Specifically, the oven was programmed to remain above 66° C. for at least 5 hrs and to reach a peak temperature of 71° C. for not more than 1 hr. The programmed parameters appear below in Table 1.

[2] = Stain removal from HAP disk, Cran-Grape juice stain; details: disk A-5: Cran-Grape juice stain treated the same way as P and Q (pH 8 SDS/HEPA buffer)
Text: (§1) Oxidation resistant chelating buffer: 0.25M 1-Hydroxyethylidenediphosphonic acid (etridonic acid) (Dequest® 2010, Thermphos) (HEPA) was pH adjusted by microtitration with 10N NaOH. 1.28 g of 1-Hydroxyethylidenediphosphonic acid was to a 25-mL volumetric flask and brought to volume with HPDI water. The solution was transferred to a 50-mL beaker with a stir bar and pH adjusted using 10.04N NaOH, monitored with a calibrated pH meter. Aliquat 336® (Cognis) (also suitable is Aliquat 134®) (N-methyl-tri-(n-octyl)ammonium chloride), (N-methyl TOA) or “HEPA” chelating pH Buffer: 2.5-μL of N-methyl TOA was added to 5 mL of pH 7 HEPA buffer and sonicated for 1 minute. pH 7 Sodium Dodecyl Sulfate (SDS)/HEPA Buffer: 10 mg of SDS was added to 5 mL of pH 7 HEPA buffer and sonicated for 1 minute. pH 8 SDS/HEPA Buffer: 10 mg of SDS was added to 5 mL of pH 8 HEPA buffer and sonicated for 1 minute.
(§2) • A. A tea stained disk was placed into the bowl of the bowl of a watch glass and 100 μL of pH 7 HEPA buffer was pipetted onto the disk surface. 3.7 mg of potassium ferrate(VI) was added to the disk surface and mixed gently. […] The disk was rinsed at 10 minutes with HPDI water. […] 1 mL of pH 7 HEPA buffer was added followed by 9 mL of HPDI water. 9.7 mg of potassium ferrate(VI) was added. The tube was gently hand shaken for 10 minutes. The disk was removed and rinsed with HPDI water. […] 10 mg of potassium ferrate(VI) was added to 1 mL of pH 7 HEPA buffer in a 50 mL centrifuge tube. 9 mL HPDI water was added, and the solution was shaken for a few seconds followed by the addition of a tea stained HAP disk. The disk was removed at 10 minutes and rinsed with HPDI water. […] 1.3 mg of potassium ferrate(VI) added and mixed into the solution. […] 1.4 mg of potassium ferrate(VI) was added to the disk surface and mixed gently. […] The reaction was allowed to continue for 5 minutes. […] The disk was rinsed several times with HPDI water. 100 μL of pH 7 HEPA buffer was pipetted onto the disk surface and allowed to react for 5 minutes. […] 1 mg of potassium ferrate(VI) was added and mixed into the liquid.

[3] = Stain removal from HAP disk, coffee stain; details: disk A-6: coffee stained disk treated the same way as P and Q (pH 8 SDS/HEPA buffer)
Text: as §1, §2

[4] = Treatment of unstained HAP disk (staining by the reagent itself); details: disk D: unstained disk, 100 μL pH 7 HEPA buffer, 1.3 mg
Method: Tea staining Procedure: A calcium-deficient hydroxyapatite (HAP) disk (Clarkson Chromatography Products) was placed into a 50-mL centrifuge tube with 10 mL of tea solution. The centrifuge tube was gently shaken by hand for 15 minutes. The tea solution was decanted and replaced with 10 mL of HPDI water and vortexed for 30 seconds. The water was decanted and replaced with 10 additional mL of HPDI water and vortexed for 30 seconds. The disk was removed with forceps and patted dry with a tissue. The disk was allowed to air dry at room temperature for at least one hour.
as §1
• A. A tea stained disk was placed into the bowl of the bowl of a watch glass and 100 μL of pH 7 HEPA buffer was pipetted onto the disk surface. 3.7 mg of potassium ferrate(VI) was added to the disk surface and mixed gently. […] The disk was rinsed at 10 minutes with HPDI water. […] 1 mL of pH 7 HEPA buffer was added followed by 9 mL of HPDI water. 9.7 mg of potassium ferrate(VI) was added. The tube was gently hand shaken for 10 minutes. The disk was removed and rinsed with HPDI water. […] 10 mg of potassium ferrate(VI) was added to 1 mL of pH 7 HEPA buffer in a 50 mL centrifuge tube. 9 mL HPDI water was added, and the solution was shaken for a few seconds followed by the addition of a tea stained HAP disk. The disk was removed at 10 minutes and rinsed with HPDI water. […] 1.3 mg of potassium ferrate(VI) added and mixed into the solution. […] 1.4 mg of potassium ferrate(VI) was added to the disk surface and mixed gently. […] The reaction was allowed to continue for 5 minutes. […] The disk was rinsed several times with HPDI water. 100 μL of pH 7 HEPA buffer was pipetted onto the disk surface and allowed to react for 5 minutes.

[5] = Stain removal from HAP disk, grape juice stain; details: disk A-4: grape juice stained disk treated the same way as P and Q (pH 8 SDS/HEPA buffer)
[6] = at 71° C.; pure (80-100%) or moderate purity (50-80%)
Method: The more demanding isothermal test conditions were chosen for the preliminary viability assessment testing. In this series of tests, a Blue M Electric Oven, Model OV-490A-3 (S/N OV-11311, BMI No. N-00154, 120V Single Phase, 38-260° C.), was used. The oven was set to maintain an air temperature of approximately 71.5° C. A mercury thermometer immersed in silicone oil was added to the oven for manual tracking of the temperature, and a HOBO model H08-002-02 external temperature logger (Onset Computer Corp., S/N 5948-9820) was used for automated temperature data acquisition. Four ˜1.0 g samples of K2FeO4 TG were transferred to clean 12 mL glass vials with Teflon-lined caps; these samples with purity from ˜75-93% were chosen specifically to represent a variety of initial purity values. Before closure, the headspace of each vial briefly was purged (˜20 sec at ˜250 cm^3 (STP)) with ultra-high purity (UHP) argon gas to minimize trapped moisture.
The samples were removed from the oven at 1, 2, 5, 7, 12, 27, 48, and 98 days. The purity of each sample was determined by the technique described in Section 3.2.1. Each vial was assayed three times at each sampling point in order to calculate standard deviation and provide an estimate of precision. When returning the vials to the isothermal oven, the headspace of each vial was purged briefly with UHP argon, as before.

Substance: potassium ferrate(VI)
- stable to storage [1]: at least 82 days
- L* (lightness/darkness) [2]: 107.3
- a* (blue/red) [2]: −3.2
- appearance of disk after treatment [2]: All stains were removed
- b* (yellow/green) [2]: −5.5
- reflectance of visible light at 450 nm [2]: 126.369
- reflectance of visible light at 750 nm [2]: 108.805
- ΔE (cran-grape juice stain) [2]: 6.82
- L* (lightness/darkness) [3]: 101.9
- a* (blue/red) [3]: −2.1
- appearance of disk after treatment [3]: All stains were removed
- b* (yellow/green) [3]: −2.8
- reflectance of visible light at 450 nm [3]: 106.774
- reflectance of visible light at 750 nm [3]: 99.233
- ΔE (coffee stain) [3]: 13.57
- L* (lightness/darkness) [4]: 103.4
- a* (blue/red) [4]: −2.2
- appearance of disk after treatment [4]: very slight yellow tint
- b* (yellow/green) [4]: 0.5
- reflectance of visible light at 450 nm [4]: 105.246
- reflectance of visible light at 750 nm [4]: 102.793
- ΔE (versus tea stain) [4]: 20.34
- L* (lightness/darkness) [5]: 103.5
- a* (blue/red) [5]: −1.9
- appearance of disk after treatment [5]: All stains were removed
- b* (yellow/green) [5]: −3.1
- reflectance of visible light at 450 nm [5]: 111.244
- reflectance of visible light at 750 nm [5]: 103.795
- ΔE (grape juice stain) [5]: 6.10
- stable to storage [6]: at least 98 days

From patent US8663607B2, “Ferrate(VI)-containing compositions and methods of using ferrate(VI)” (Battelle Memorial Institute, priority 2007, dated 2014)
